Measured values: US8853230B2, “Inhibitors of JAK” (Portola Pharmaceuticals, Inc., priority 2009, dated 2014)

What was measured:
[1] = biological target: T1, JAK1 (Homo sapiens, UniProt P23458); experiment: Z'-LYTE kinase assay, JAK1 tyrosine phosphorylation activity; format: biochemical; settings: read-out: JAK 1 IC50
T1 construct: 5 μl of catalytic domain recombinant Kinase enzyme+Tyr peptide substrate (Invitrogen, Calif.); purchased Invitrogen
Method in brief: (§1)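 Recombinant catalytic-domain kinase was incubated with coumarin/fluorescein-labelled Tyr6 peptide, ATP and compound (1% DMSO final) for 1 h at room temperature. Protease development then ran 1 h at room temperature. Emission ratio at 445/520 nm (excitation 400 nm) gave percent phosphorylation; IC50s came from 4-parameter logistic fits.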

[2] = biological target: T2, JAK2 (Homo sapiens, UniProt O60674); experiment: Z'-LYTE kinase assay, JAK2 tyrosine phosphorylation activity; format: biochemical
T2 construct: 5 μl of catalytic domain recombinant Kinase enzyme+Tyr peptide substrate (Invitrogen, Calif.); purchased Invitrogen
Method in brief: as §1

[3] = biological target: T3, JAK3 (Homo sapiens, UniProt P52333); experiment: Z'-LYTE kinase assay, JAK3 tyrosine phosphorylation activity; format: biochemical
T3 construct: 5 μl of catalytic domain recombinant Kinase enzyme+Tyr peptide substrate (Invitrogen, Calif.); purchased Invitrogen
Method in brief: as §1

[4] = biological target: T4, TYK2 (Homo sapiens, UniProt P29597); experiment: Z'-LYTE kinase assay, TYK2 tyrosine phosphorylation activity; format: biochemical
T4 construct: 5 μl of catalytic domain recombinant Kinase enzyme+Tyr peptide substrate (Invitrogen, Calif.); purchased Invitrogen
T4 sequence (P29597 897-1176 limits assumed): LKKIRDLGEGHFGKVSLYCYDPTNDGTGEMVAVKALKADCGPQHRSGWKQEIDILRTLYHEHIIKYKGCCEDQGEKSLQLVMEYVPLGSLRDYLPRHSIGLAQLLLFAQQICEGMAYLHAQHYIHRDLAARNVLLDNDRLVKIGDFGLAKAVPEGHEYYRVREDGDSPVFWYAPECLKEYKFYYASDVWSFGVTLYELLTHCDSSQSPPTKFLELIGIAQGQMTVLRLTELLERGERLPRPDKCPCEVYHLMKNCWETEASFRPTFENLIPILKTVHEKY
Method in brief: as §1

[5] = test system: IL4-induced phospho STAT6 formation in Ramos B lymphocytes; experiment: Inhibition of IL4-induced phospho STAT6 formation in Ramos B lymphocytes (flow cytometry); format: cell-based, human; settings: Homo sapiens; for inhibition at 0.2 µM: 200 nM compound, read-out: % Inhibition of IL-4 Induced STAT6 Phosphorylation 200 nM; for inhibition at 1 µM: 1 μM compound, read-out: % Inhibition of IL-4 Induced STAT6 Phosphorylation 1 μM
Method in brief: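 Human Ramos B cells (0.5 million) pre-incubated 1 h at 37°C/5% CO2 with compound or DMSO, then stimulated with 1 ng/ml IL4 for 10 min. Cells were PFA-fixed, methanol-permeabilized and stained with Alexa-anti-phosphoSTAT6 (Y641); flow cytometry mean fluorescence gave percent inhibition of the IL4 signal.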

[6] = biological target: Syk (Homo sapiens, UniProt P43405); experiment: Syk IC50 (Table 1; method not given); format: biochemical

T2 sequence (O60674 849-1124 limits assumed): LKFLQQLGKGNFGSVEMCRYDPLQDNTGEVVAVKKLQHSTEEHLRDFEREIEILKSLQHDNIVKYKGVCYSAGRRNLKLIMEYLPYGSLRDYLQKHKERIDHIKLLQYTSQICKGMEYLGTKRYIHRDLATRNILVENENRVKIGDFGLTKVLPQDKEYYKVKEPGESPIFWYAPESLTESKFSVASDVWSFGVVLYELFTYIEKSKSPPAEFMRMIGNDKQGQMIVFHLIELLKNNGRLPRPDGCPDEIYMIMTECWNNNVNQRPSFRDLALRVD
T3 sequence (P52333 822-1111 limits assumed): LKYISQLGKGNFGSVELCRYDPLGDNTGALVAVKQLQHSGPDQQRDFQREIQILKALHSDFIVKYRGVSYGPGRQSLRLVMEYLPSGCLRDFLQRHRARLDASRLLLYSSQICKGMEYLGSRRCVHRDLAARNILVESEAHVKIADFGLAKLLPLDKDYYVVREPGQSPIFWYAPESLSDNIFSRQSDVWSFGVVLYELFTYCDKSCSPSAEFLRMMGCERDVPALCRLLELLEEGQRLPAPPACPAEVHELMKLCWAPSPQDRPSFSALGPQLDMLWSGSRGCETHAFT
T1 sequence (P23458 875-1153 limits assumed): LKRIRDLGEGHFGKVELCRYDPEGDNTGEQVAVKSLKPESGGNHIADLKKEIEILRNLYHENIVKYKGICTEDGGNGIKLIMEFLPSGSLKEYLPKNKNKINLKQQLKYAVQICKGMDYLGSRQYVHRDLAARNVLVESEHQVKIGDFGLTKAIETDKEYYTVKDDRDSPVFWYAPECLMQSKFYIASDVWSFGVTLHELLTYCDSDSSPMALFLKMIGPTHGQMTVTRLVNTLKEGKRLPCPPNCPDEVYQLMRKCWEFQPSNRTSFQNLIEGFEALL

| SMILES | IC50 [1] | IC50 [2] | IC50 [3] | IC50 [4] | IC50 [6] | inhibition at 0.2 µM [5] | inhibition at 1 µM [5] |
| --- | --- | --- | --- | --- | --- | --- | --- |
| CNC(=O)Nc1cc(Nc2ncc(C(N)=O)c(NCc3ccccc3)n2)ccc1Cl [Example 131, 4-(benzylamino)-2-(4-chloro-3-(3-methylureido)phenylamino)pyrimidine-5-carboxamide] | > 1 µM | 0.1 to 1 µM | 0.001 to 0.01 µM | 0.01 to 0.1 µM | > 1 µM | 0.3% | 4.3% |
| CCOC(=O)Nc1cccc(Nc2ncc(C(N)=O)c(NC3CCCC3)n2)c1 [Example 24, ethyl 3-(5-carbamoyl-4-(cyclopentylamino)pyrimidin-2-ylamino)phenylcarbamate] | 0.1 to 1 µM | 0.1 to 1 µM | 0.01 to 0.1 µM | 0.01 to 0.1 µM | 0.1 to 1 µM | 24.7% | 71.3% |
| CC(=O)Nc1cccc(Nc2ncc(C(N)=O)c(NCC3CCCN(C(=O)OCc4ccccc4)C3)n2)c1 (stereo not drawn) [Example 115, Benzyl 3-((2-(3-acetamidophenylamino)-5-carbamoylpyrimidin-4-ylamino)methyl)piperidine-1-carboxylate] | 0.1 to 1 µM | 0.1 to 1 µM | 0.01 to 0.1 µM | 0.1 to 1 µM | > 1 µM | 12.3% | 53.7% |
| NC(=O)c1cnc(Nc2ccc(Cl)c(NC(=O)N3CCCC3)c2)nc1NCc1ccccc1 [Example 130, 4-(benzylamino)-2-(4-chloro-3-(pyrrolidine-1-carboxamido)phenylamino)pyrimidine-5-carboxamide] | 0.1 to 1 µM | 0.1 to 1 µM | 0.001 to 0.01 µM | 0.01 to 0.1 µM | > 1 µM | 0.7% | 19% |
| COC(=O)Nc1cc(Nc2ncc(C(N)=O)c(NCc3ccccc3)n2)ccc1Cl [Example 32, methyl 5-(4-(benzylamino)-5-carbamoylpyrimidin-2-ylamino)-2-chlorophenylcarbamate] | 0.1 to 1 µM | 0.1 to 1 µM | 0.01 to 0.1 µM | 0.01 to 0.1 µM | > 1 µM | 27% | 65% |
| CC(=O)Nc1cccc(Nc2ncc(C(N)=O)c(NC3CCOCC3)n2)c1 [Example 75, 2-(3-acetamidophenylamino)-4-(tetrahydro-2H-pyran-4-ylamino)pyrimidine-5-carboxamide] | 0.01 to 0.1 µM | 0.01 to 0.1 µM | 0.001 to 0.01 µM | 0.01 to 0.1 µM | > 1 µM | 53.3% | 90.3% |
| CC(C)OC(=O)Nc1cccc(Nc2ncc(C(N)=O)c(NCc3ccccc3)n2)c1 [Example 41, isopropyl 3-(4-(benzylamino)-5-carbamoylpyrimidin-2-ylamino)phenylcarbamate] | > 1 µM | 0.1 to 1 µM | 0.01 to 0.1 µM | 0.01 to 0.1 µM | > 1 µM | 50.7% | 95.3% |
| NC(=O)c1cnc(Nc2cccc(NC(=O)C3CCC3)c2)nc1NCc1ccccc1 [Example 27, 4-(benzylamino)-2-(3-(cyclobutanecarboxamido)phenylamino)pyrimidine-5-carboxamide] | 0.1 to 1 µM | 0.01 to 0.1 µM | 0.001 to 0.01 µM | 0.01 to 0.1 µM | > 1 µM | 7% | 54.3% |
| C[C@@H](Nc1nc(Nc2cccc(NC(=O)N3CC[C@H](O)C3)c2)ncc1C(N)=O)c1ccccc1 [Example 128, 2-(3-((S)-3-hydroxypyrrolidine-1-carboxamido)phenylamino)-4-((R)-1-phenylethylamino)pyrimidine-5-carboxamide] | 0.01 to 0.1 µM | 0.01 to 0.1 µM | < 0.001 µM | 0.01 to 0.1 µM | > 1 µM | 31.7% | 82.7% |
| CC(=O)Nc1cccc(Nc2ncc(C(N)=O)c(N[C@H](CO)c3ccccc3)n2)c1 [Example 93, (S)-2-(3-acetamidophenylamino)-4-(2-hydroxy-1-phenylethylamino)pyrimidine-5-carboxamide] | 0.1 to 1 µM | 0.01 to 0.1 µM | 0.001 to 0.01 µM | 0.01 to 0.1 µM | > 1 µM | 20% | 53% |
| COC(=O)Nc1cccc(Nc2ncc(C(N)=O)c(NCc3ccccc3)n2)c1 [Example 30, methyl 3-(4-(benzylamino)-5-carbamoylpyrimidin-2-ylamino)phenylcarbamate] | 0.1 to 1 µM | 0.01 to 0.1 µM | 0.001 to 0.01 µM | 0.001 to 0.01 µM | 0.1 to 1 µM | 8.3% | 63% |

Now from value to compound, other results behind:

| IC50 [1] | IC50 [2] | IC50 [3] | IC50 [4] | IC50 [6] | SMILES | inhibition at 0.2 µM [5] | inhibition at 1 µM [5] |
| --- | --- | --- | --- | --- | --- | --- | --- |
| 0.01 to 0.1 µM | 0.01 to 0.1 µM | 0.001 to 0.01 µM | 0.01 to 0.1 µM | 0.1 to 1 µM | COCC(=O)Nc1cccc(Nc2ncc(C(N)=O)c(NC(C)C)n2)c1 [Example 57, 4-(isopropylamino)-2-(3-(2-methoxyacetamido)phenylamino)pyrimidine-5-carboxamide] | 55% | 76.5% |
| 0.01 to 0.1 µM | 0.01 to 0.1 µM | 0.001 to 0.01 µM | 0.01 to 0.1 µM | 0.1 to 1 µM | CC(=O)Nc1cccc(Nc2ncc(C(N)=O)c(NCC3CCCN(C(C)=O)C3)n2)c1 (stereo not drawn) [Example 119, 2-(3-acetamidophenylamino)-4-((1-acetylpiperidin-3-yl)methylamino)pyrimidine-5-carboxamide] | 9% | 63% |
| 0.01 to 0.1 µM | 0.01 to 0.1 µM | 0.001 to 0.01 µM | 0.001 to 0.01 µM | > 1 µM | COCC(=O)Nc1cccc(Nc2ncc(C(N)=O)c(NCc3ccccc3)n2)c1 [Example 29, 4-(benzylamino)-2-(3-(2-methoxyacetamido)phenylamino)pyrimidine-5-carboxamide] | 37.5% | 80% |
| 0.01 to 0.1 µM | 0.01 to 0.1 µM | 0.001 to 0.01 µM | 0.001 to 0.01 µM | > 1 µM | CC[C@H](C)[C@@H](CO)Nc1nc(Nc2cccc(NC(C)=O)c2)ncc1C(N)=O [Example 73, 2-(3-acetamidophenylamino)-4-((2S,3S)-1-hydroxy-3-methylpentan-2-ylamino)pyrimidine-5-carboxamide] | 17.1% | 55.6% |
| 0.01 to 0.1 µM | 0.01 to 0.1 µM | 0.001 to 0.01 µM | 0.001 to 0.01 µM | > 1 µM | CCC(=O)Nc1cccc(Nc2ncc(C(N)=O)c(NCc3ccccc3)n2)c1 [Example 28, 4-(benzylamino)-2-(3-propionamidophenylamino)pyrimidine-5-carboxamide] | 32% | 77.7% |
| 0.01 to 0.1 µM | 0.001 to 0.01 µM | < 0.001 µM | 0.001 to 0.01 µM | 0.1 to 1 µM | CC(=O)Nc1cccc(Nc2ncc(C(N)=O)c(NCc3ccccc3)n2)c1 [Example 17, 2-(3-acetamidophenylamino)-4-(benzylamino)pyrimidine-5-carboxamide] | 34% | 73.7% |
| 0.01 to 0.1 µM | 0.01 to 0.1 µM | 0.001 to 0.01 µM | 0.001 to 0.01 µM | 0.1 to 1 µM | NC(=O)Nc1cccc(Nc2ncc(C(N)=O)c(NCc3ccccc3)n2)c1 [Example 38, 4-(benzylamino)-2-(3-ureidophenylamino)pyrimidine-5-carboxamide] | 41.3% | 82.7% |
